IC50 and solubility data for two molecules are collected here from patent EP4567040A1, “CRYSTAL FORM OF FUSED TRICYCLIC DERIVATIVE AND PREPARATION METHOD” (Jiangsu Hengrui Pharmaceuticals Co., Ltd., priority 2022, dated 2024).

One data set has as its target T1, CDK1/CyclinB (Homo sapiens, UniProt P06493).
T1 construct: purchased proqinase 0134-0135-1
Nature of the data set: Kinase activity assay, ADP-Glo (CDK1/CyclinB). Particulars: Table 18; read-out: CDK1/B IC50. The format is biochemical. On the technique in general: ADP-Glo first removes unused ATP, then detects ADP through luciferase.

Another data set concerns the target T2, CDK6/CyclinD3 (Homo sapiens, UniProt Q00534).
T2 construct: purchased Carna 04-107
Nature of the data set: Kinase activity assay, mobility shift assay (CDK6/CyclinD3). As to conditions: Table 18; read-out: CDK6/D3 IC50. The format is biochemical. The procedure:
In vitro CDK kinase activity was tested using a mobility shift assay. […] A proper amount of kinase was added to the 1× kinase buffer to prepare a 2.5× enzyme solution. 5× compound dilutions (1× kinase buffer, 10% DMSO) corresponding to the test concentrations of the compounds were prepared. […] 5 µL of 5× compound dilution and 10 µL of 2.5× enzyme solution were added to reaction wells of a 384-well reaction plate. After thorough mixing, the plate was incubated at room temperature for 10 min. […] The reaction plate was incubated at 28 °C for 60 min (biochemical incubator model: SPX-100B-Z). 30 µL of stop solution was added to the 384-well reaction plate to stop the reactions, and the plate was centrifuged at 1000 rpm for 1 min.
IC50 values for the compounds were obtained by fitting using XLFit excel add-in version 5.4.0.8. Fitting formula: Y = Bottom + (Top−Bottom)/(1+((IC50/X))^(∧)HillSlope). [formula]

Data set [1] is described as follows: Thermodynamic solubility testing in pH 7.4 phosphate buffer. The format is physicochemical. As to conditions: sodium phosphate buffer, aqueous buffer, thermodynamic from solid, 25 °C. The protocol: The thermodynamic solubility of the compounds in a pH 7.4 phosphate buffer was determined. Both the sample supernatant and the standard of a known concentration were tested by LC/MS/MS.
15.6 g of NaH2PO4·2H2O was weighed out, placed into a 1 L glass flask, and dissolved in 1 L of deionized water. The pH of the solution was approximately 4.7, and then the pH was adjusted to 7.4 with 10 M NaOH.
1 mg of each compound powder was accurately weighed out and placed in a glass tube. The pH 7.4 sodium phosphate buffer was added to the glass tube, with 1 mL of the buffer added for each milligram of the compound powder. A stirring bar was added to each glass tube, and the glass tube was closed with a cap. […] The observations in each glass tube were recorded. […] The recorded observations and dilution factors
1 mg of each compound powder was accurately weighed out and added to a glass tube, and DMSO was added to each glass tube, with 1 mL of DMSO added for each milligram of the compound powder. […] Samples were analyzed by LC/MS/MS. […]
All calculations were performed using Microsoft Excel. Samples were analyzed by LC/MS/MS and quantified based on the standard of a known concentration. The solubility of the test compounds was calculated using the following formula: [Sample] = Area Ratio sample × DF sample × [STD] / Area Ratio STD DF: dilution factor. […]

Another data set deals with T3, CYP1A2 (Homo sapiens, UniProt P05177).
T3 sequence (P05177 1-516): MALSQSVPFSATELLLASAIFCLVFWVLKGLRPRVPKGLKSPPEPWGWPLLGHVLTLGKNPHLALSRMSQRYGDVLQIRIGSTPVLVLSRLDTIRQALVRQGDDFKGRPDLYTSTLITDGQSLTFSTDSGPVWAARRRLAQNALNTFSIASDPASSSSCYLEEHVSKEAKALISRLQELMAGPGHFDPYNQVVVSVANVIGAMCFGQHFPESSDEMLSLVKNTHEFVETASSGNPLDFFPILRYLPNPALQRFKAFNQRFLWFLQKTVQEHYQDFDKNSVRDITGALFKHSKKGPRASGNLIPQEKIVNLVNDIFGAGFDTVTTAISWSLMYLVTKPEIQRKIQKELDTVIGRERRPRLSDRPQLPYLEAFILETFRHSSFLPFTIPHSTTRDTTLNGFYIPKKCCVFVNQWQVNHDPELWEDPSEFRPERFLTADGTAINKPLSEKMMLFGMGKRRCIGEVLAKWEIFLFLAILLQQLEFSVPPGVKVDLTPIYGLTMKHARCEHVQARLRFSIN
Nature of the data set: biochemical.

The target in another data set is CYP2D6 (Homo sapiens, UniProt P10635). Nature of the data set: biochemical.
CYP2D6, sequence (P10635 whole entry): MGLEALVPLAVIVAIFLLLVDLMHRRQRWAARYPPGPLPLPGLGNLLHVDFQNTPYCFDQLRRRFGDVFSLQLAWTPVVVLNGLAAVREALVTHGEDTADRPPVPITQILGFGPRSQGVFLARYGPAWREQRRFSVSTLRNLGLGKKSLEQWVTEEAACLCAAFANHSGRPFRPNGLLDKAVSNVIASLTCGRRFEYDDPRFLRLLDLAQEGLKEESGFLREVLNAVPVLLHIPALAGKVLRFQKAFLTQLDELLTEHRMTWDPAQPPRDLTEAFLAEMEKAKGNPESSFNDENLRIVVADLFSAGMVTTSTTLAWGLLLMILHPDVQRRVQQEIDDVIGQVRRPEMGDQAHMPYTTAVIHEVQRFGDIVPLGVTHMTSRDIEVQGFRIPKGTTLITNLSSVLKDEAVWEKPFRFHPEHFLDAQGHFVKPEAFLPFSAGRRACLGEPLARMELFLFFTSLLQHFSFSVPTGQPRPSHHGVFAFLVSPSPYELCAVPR

Converted amounts (≈) assume the structure as drawn.

T2 sequence (Q00534 whole entry): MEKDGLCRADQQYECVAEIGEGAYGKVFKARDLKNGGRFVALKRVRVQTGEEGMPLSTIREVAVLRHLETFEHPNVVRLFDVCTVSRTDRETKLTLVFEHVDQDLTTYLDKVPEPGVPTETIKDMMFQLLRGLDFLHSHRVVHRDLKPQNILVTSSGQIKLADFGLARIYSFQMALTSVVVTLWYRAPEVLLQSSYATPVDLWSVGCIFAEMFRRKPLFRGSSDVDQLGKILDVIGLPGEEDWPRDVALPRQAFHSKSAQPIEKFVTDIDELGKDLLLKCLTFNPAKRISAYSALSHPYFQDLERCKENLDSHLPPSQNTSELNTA
T2 sequence (P30281 whole entry partner): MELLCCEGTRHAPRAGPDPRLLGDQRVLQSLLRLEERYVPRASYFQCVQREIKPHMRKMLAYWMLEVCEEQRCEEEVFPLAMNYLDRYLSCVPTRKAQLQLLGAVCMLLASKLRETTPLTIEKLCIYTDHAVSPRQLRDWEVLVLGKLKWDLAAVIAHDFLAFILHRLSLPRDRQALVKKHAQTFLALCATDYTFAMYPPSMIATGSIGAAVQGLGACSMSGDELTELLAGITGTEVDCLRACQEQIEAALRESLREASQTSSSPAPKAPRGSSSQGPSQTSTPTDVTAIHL
T1 sequence (P06493 whole entry): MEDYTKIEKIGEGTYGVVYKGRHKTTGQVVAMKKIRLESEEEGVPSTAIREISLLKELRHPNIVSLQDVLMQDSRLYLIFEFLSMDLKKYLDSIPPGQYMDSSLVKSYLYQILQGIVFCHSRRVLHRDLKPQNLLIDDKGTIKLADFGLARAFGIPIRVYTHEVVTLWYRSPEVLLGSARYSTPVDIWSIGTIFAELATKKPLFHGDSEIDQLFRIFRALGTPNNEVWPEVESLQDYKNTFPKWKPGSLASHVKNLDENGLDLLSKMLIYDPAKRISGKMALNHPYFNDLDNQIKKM
T1 sequence (P14635 whole entry partner): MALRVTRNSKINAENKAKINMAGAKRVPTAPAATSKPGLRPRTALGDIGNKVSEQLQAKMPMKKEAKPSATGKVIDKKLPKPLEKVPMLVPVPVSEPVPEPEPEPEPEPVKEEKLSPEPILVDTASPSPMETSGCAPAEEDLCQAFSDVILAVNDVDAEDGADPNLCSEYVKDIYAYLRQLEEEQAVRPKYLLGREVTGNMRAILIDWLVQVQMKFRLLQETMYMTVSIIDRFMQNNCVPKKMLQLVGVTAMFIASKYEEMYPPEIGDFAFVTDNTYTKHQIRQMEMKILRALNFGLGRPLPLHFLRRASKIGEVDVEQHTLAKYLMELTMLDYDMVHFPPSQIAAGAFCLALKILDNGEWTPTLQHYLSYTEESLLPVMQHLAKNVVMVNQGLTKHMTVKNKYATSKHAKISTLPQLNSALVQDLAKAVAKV
Method for CYP1A2: (§1) The effects of different concentrations of the test compounds on the metabolic reactions of phenacetin (CYP1A2), diclofenac sodium (CYP2C9), S-mephenytoin (CYP2C19), bufuralol hydrochloride (CYP2D6), and midazolam (CYP3A4/5) were assessed by liquid chromatography-tandem mass spectrometry (LC/MS/MS).
(§2) Then, 200 µL of an acetonitrile solution containing 3% formic acid and 40 nM internal standard verapamil was added, and the mixture was centrifuged at 4000 rpm for 50 min. The mixture was cooled on ice for 20 min and centrifuged at 4000 rpm for 20 min to precipitate protein. 200 µL of the supernatant was taken for LC/MS/MS analysis.
(§3) The peak area was calculated based on the chromatogram. The residual activity proportion (%) was calculated using the following formula: peak area ratio = peak area of metabolite / peak area of internal standard [formula]
(§4) The half maximal inhibitory concentrations (IC50) against CYP were calculated using Excel XLfit 5.3.1.3.
Method for CYP2D6: as §1, §2, §3, §4

Usually solubility stands for the dissolved amount per volume that the medium holds. High values mean much dissolved substance, low ones little dissolved substance. Regarding `C[C@@H]1COc2c(-c3nc(N[C@@H]4CCOC[C@H]4O)ncc3Cl)cc(F)c3nc(C(C)(C)O)n1c23` (single isomer, unassigned) [Isomer 2 with a retention time of 1.887 min], the IC50 at CDK1/CyclinB was greater than 1000 nM; at CDK6/CyclinD3, 228 nM; against CYP1A2, greater than 30000 nM; at CYP2D6, greater than 30000 nM. In addition, the solubility at 24 h in data set [1] worked out at 2130 µM (≈ 1020 µg/mL).

`C[C@H]1COc2c(-c3nc(N[C@@H]4CCOC[C@H]4O)ncc3Cl)cc(F)c3nc(C(C)(C)O)n1c23` (single isomer, unassigned) [Isomer 1 with a retention time of 2.078 min]: the IC50 was greater than 1000 nM on CDK1/CyclinB, 105 nM at CDK6/CyclinD3, greater than 30000 nM at CYP1A2 and greater than 30000 nM against CYP2D6. In addition, the solubility at 24 h in data set [1] came out at 2200 µM (≈ 1050 µg/mL).
